Like-named read-outs stand apart in the source and are kept apart here.
Tests used:
[1] = Pharmacokinetic experiment comparing oral gavage, intra-duodenal and intra-jejunal dosing in rats; format: in vivo, Wister-Hans rats
Excerpt: FIG. 1 depicts the results of a pharmacokinetic experiment comparing oral and intra-duodenal gavage dosing of (R)-2-(3-(4-amino-3-(2-fluoro-4-phenoxyphenyl)-1H-pyrazolo[3,4-d]pyrimidin-1-yl)piperidine-1-carbonyl)-4-methyl-4-(4-(oxetan-3-yl)piperazin-1-yl)pent-2-enenitrile having E/Z ratio of about 9:1. The area under the curve (AUC) and the Cmax are plotted.
(R)-2-(3-(4-amino-3-(2-fluoro-4-phenoxyphenyl)-1H-pyrazolo[3,4-d]pyrimidin-1-yl)piperidine-1-carbonyl)-4-methyl-4-(4-(oxetan-3-yl)piperazin-1-yl)pent-2-enenitrile was dosed in 10 mg/mL aqueous citrate solution at 20 mg/kg to Wister-Hans rats. Anhydrous citric acid (0.5 equivalents) was added to the free base of (R)-2-(3-(4-amino-3-(2-fluoro-4-phenoxyphenyl)-1H-pyrazolo[3,4-d]pyrimidin-1-yl)piperidine-1-carbonyl)-4-methyl-4-(4-(oxetan-3-yl)piperazin-1-yl)pent-2-enenitrile. The experiment was repeated 3 times each with 2 separate arms, and one oral gavage arm was included in each study. Intra-jejunal (IJ) and intra-duodenal dosing was done in cannulated rats. In the first study, there was a 40-fold increase in the AUC for the IJ-dosed group compared to the PO group, and the metabolite present in the IJ-group was reduced 10-fold.

[2] = cited from earlier work
[3] = 20 mg/kg, intra-duodenal vs oral, FIG. 1
[4] = 20 mg/kg, intra-jejunal vs oral, FIG. 1

Row | AUC, ID dosing compared to PO dosing [1, 3] | Cmax, ID dosing compared to PO dosing [1, 3] | AUC, IJ dosing compared to PO dosing [1, 4] | Cmax, IJ dosing compared to PO dosing [1, 4] | increase in the AUC for the IJ-dosed group compared to the PO group ([1]; first study, 20 mg/kg in 10 mg/mL aqueous citrate solution, intra-jejunal vs oral gavage) [fold] | Structure (SMILES) | bioavailability as determined by AUC ([2]; administered intraduodenally) [%] | bioavailability as determined by AUC ([2]; direct oral administration) [%]
1 | increased | increased | substantially increased | substantially increased | 40 | CC(C)(C=C(C#N)C(=O)N1CCC[C@@H](n2nc(-c3ccc(Oc4ccccc4)cc3F)c3c(N)ncnc32)C1)N1CCN(C2COC2)CC1 [(R)-2-(3-(4-amino-3-(2-fluoro-4-phenoxyphenyl)-1H-pyrazolo[3,4-d]pyrimidin-1-yl)piperidine-1-carbonyl)-4-methyl-4-(4-(oxetan-3-yl)piperazin-1-yl)pent-2-enenitrile] | – | –
2 | – | – | – | – | – | C=CC(=O)N1CCC[C@@H](n2nc(-c3ccc(Oc4ccccc4)cc3)c3c(N)ncnc32)C1 [ibrutinib, 1-[(3R)-3-[4-Amino-3-(4-phenoxyphenyl)-1H-pyrazolo[3,4-d]pyrimidin-1-yl]piperidin-1-yl]prop-2-en-1-one] | 100 | 21

Source: patent US20180193274A1, “COMPOSITIONS FOR ILEO-JEJUNAL DRUG DELIVERY” (Principia Biopharma Inc., priority 2014, published 2018)
